{"source": "patent US8455647B2", "about": "“6-aminoisoquinoline compounds” (Aerie Pharmaceuticals, Inc., priority 2005, dated 2013)", "format_in_all_cases": "in vivo", "key": {"[1]": {"tested_on": "eyes", "test": "Topical ocular composition (Example 212), dry eye syndrome", "details": "composition of Example 212 (0.50 wt %), as a drop twice per day"}, "[2]": {"tested_on": "eyes", "test": "Topical ocular composition (Example 212), allergic symptoms"}, "[3]": {"tested_on": "patient suffering from glaucoma", "test": "Topical ocular composition (Example 212) lowering intraocular pressure", "protocol": "Examples of such assays are described in the following reference, incorporated herein by reference: C. Liljebris, G. Selen, B. Resul, J. Sternschantz, and U. Hacksell, “Derivatives of 17-Phenyl-18,19,20-trinorprostaglandin F2α Isopropyl Ester: Potential Anti-glaucoma Agents”, Journal of Medicinal Chemistry, Vol. 38 (2) 1995, pp. 289-304.\n(§1) Topical pharmaceutical compositions for lowering intraocular pressure are prepared by conventional methods and formulated as follows: […]\n(§2) A compound according to this invention is used as the 6-aminoisoquinoline derivative. […]"}, "[4]": {"tested_on": "eyes", "test": "Topical ocular composition (Example 212), neuroprotective agent", "details": "composition of Example 212 (0.50 wt %), as a drop 4 times per day", "protocol": "as §1, §2"}, "[5]": {"tested_on": "eyes", "test": "Topical ocular composition (Example 212), hyperemia, redness and ocular irritation", "details": "composition of Example 212 (0.50 wt %), as a drop as needed"}, "[6]": {"details": "composition of Example 212 (0.50 wt %), as a drop twice per day"}, "[7]": {"details": "composition of Example 212/213 (0.50 wt %), as a drop twice a day or as needed"}}, "note": "Structures can show the parent of a compound that is named as a salt."}
{"smiles": "O=C(Nc1ccc2cnccc2c1)OCc1ccccc1", "note": "[Example E87, benzylisoquinolin-6-ylcarbamate]", "values": [{"measurement": "relief of dry eye syndrome", "setting": "[1]", "result": "relieves dry eye syndrome"}, {"measurement": "decrease of allergic symptoms", "setting": "[2]; [6]", "result": "substantially decreases allergic symptoms"}]}
{"smiles": "N[C@@H](CSCC(C(=O)c1ccc(/C=C/C(=O)Nc2ccc3cnccc3c2)cc1)c1ccccc1)C(=O)O", "note": "(stereo partly drawn) [Example E207, (2R)-2-amino-3-(3-(4-((E)-3-(isoquinolin-6-ylamino)-3-oxoprop-1-enyl)phenyl)-3-oxo-2-phenylpropylthio)propanoic acid]", "values": [{"measurement": "decrease of intraocular pressure", "setting": "[3]; composition of Example 212 (0.50 wt %), as a drop 4 times per day", "result": "substantially decreases intraocular pressure"}, {"measurement": "neuroprotective agent", "setting": "[4]", "result": "serves as a neuroprotective agent"}]}
{"smiles": "NCC(=O)Nc1ccc2cnccc2c1", "note": "[Example E40, 2-amino-N-isoquinoline-6-yl-acetamide dihydrochloride]", "values": [{"measurement": "decrease of hyperemia, redness and ocular irritation", "setting": "[5]", "result": "substantially decreases hyperemia, redness and ocular irritation"}]}
{"smiles": "O=C(CCl)Nc1ccc2cnccc2c1", "note": "[Example E1, 2-chloro-N-(isoquinolin-6-yl) acetamide]", "values": [{"measurement": "relief of dry eye syndrome", "setting": "[1]", "result": "relieves dry eye syndrome"}, {"measurement": "decrease of allergic symptoms", "setting": "[2]; [6]", "result": "substantially decreases allergic symptoms"}]}
{"smiles": "O=C(Nc1ccncc1)c1ccc(C2CC2C(=O)Nc2ccc3cnccc3c2)cc1", "note": "(stereo not shown) [Example E118, 4-(2-(isoquinolin-6-ylcarbamoyl)cyclopropyl)-N-(pyridin-4-yl)benzamide]", "values": [{"measurement": "decrease of intraocular pressure", "setting": "[3]; [7]", "result": "substantially decreases intraocular pressure"}]}
{"smiles": "CNC(=O)c1cccc(NCC(=O)Nc2ccc3cnccc3c2Cl)c1", "note": "[Example E119b, 3-(2-(5-chloroisoquinolin-6-ylamino)-2-oxoethylamino)-N-methyl benzamide]", "values": [{"measurement": "decrease of intraocular pressure", "setting": "[3]; [7]", "result": "substantially decreases intraocular pressure"}]}
{"smiles": "O=C(NCc1ccccc1)Nc1ccc2cnccc2c1", "note": "[Example E88, 1-benzyl-3-(isoquinolin-6-yl)urea]", "values": [{"measurement": "decrease of allergic symptoms", "setting": "[2]; composition of Example 212/213 (0.50 wt %), as a drop as needed", "result": "substantially decreases allergic symptoms"}]}
{"smiles": "CNC(=O)c1cccc(NCS(=O)(=O)Nc2ccc3cnccc3c2)c1", "note": "[Example E136, 3-((N-isoquinolin-6-ylsulfamoyl)methylamino)-N-methylbenzamide]", "values": [{"measurement": "decrease of intraocular pressure", "setting": "[3]; [6]", "result": "substantially decreases intraocular pressure"}]}
{"smiles": "O=C(CN1CCOCC1)Nc1ccc2cnccc2c1", "note": "[Example E105, N-(isoquinolin-6-yl)-2-morpholinoacetamide]", "values": [{"measurement": "decrease of hyperemia, redness and ocular irritation", "setting": "[5]", "result": "substantially decreases hyperemia, redness and ocular irritation"}]}
{"smiles": "O=C(CNCc1ccccc1)Nc1ccc2cnccc2c1", "note": "[Example E58, 2-(benzylamino)-N-(isoquinolin-6-yl)acetamide]", "values": [{"measurement": "decrease of intraocular pressure", "setting": "[3]; [6]", "result": "substantially decreases intraocular pressure"}]}
